59 compounds from the METLIN SMRT retention time set (Domingo-Almenara et al. 2019) can be followed below.

SMILES strings stand for the structures.

The data set can be described thus: gradient 5% acetonitrile 3 min, to 50% in 2 min, to 85% in 15 min, held 3 min, 100 µL/min. The note with it: column: Zorbax Extend-C18 2.1 x 50 mm; eluents: water / acetonitrile, 0.1% formic acid. Summed up:
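The mobile phases were water and acetonitrile, each with 0.1% formic acid, pumped at 100 μL/min through a Zorbax Extend-C18 column (2.1 × 50 mm, 1.8 μm). Pure standards were injected as mixtures of ~100 molecules and detected by a quadrupole time-of-flight mass spectrometer in positive and negative ionization mode. Retention time came from computationally picked adduct peaks, each inspected by hand.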
For the compound `O=C(Nc1nnc(-c2ccc(Br)cc2)o1)c1ccccc1F`, the RP-LC retention time was found to be 788 s.
As to `O=C([C@@H]1C[C@H](Oc2ccccc2)CN1C(=O)C1CC=CC1)N1CCCC1`, the RP-LC retention time stood at 759 s.
In turn, `Cc1cc2c(cc1S(=O)(=O)N1CCCC1C(=O)Nc1ccc(F)c(Cl)c1)OCC(=O)N2` (centres undefined) showed an RP-LC retention time of 965 s.
Consider `CCOc1cc(C(=O)NCC(=O)Nc2nc3ccccc3[nH]2)cc(OCC)c1OCC`, for which the RP-LC retention time was determined as 715 s.
As for `COc1ccc(NS(=O)(=O)c2ccc3c(c2)C(=O)N(C)c2ncccc2O3)c(C)c1`, the RP-LC retention time was 898 s.
With `CCCCN(CC)C(=O)C1CCCN(c2ccc(-c3ccc(C)cc3)nn2)C1` (centres undefined) the figure was 796 s; with `O=C(NCc1ccccc1)c1cn(-c2ccc(NC(=O)C3CC3)cn2)cn1`, 725 s; with `CC(C)Cc1cc(-c2nn3c(CSc4ccccc4)nnc3s2)n[nH]1`, 948 s.
Compound `O=S(=O)(c1ccc(-c2cnc(C3CCC3)o2)s1)N1CCN(c2ncccn2)CC1` registered an RP-LC retention time of 1040 s.
With `CCn1cc(CCNC(=O)Nc2cc(F)c(F)c(F)c2)c2cccnc21` the figure was 820 s; with `CCc1nc2cc(N3CCCC(C(=O)NCc4cccnc4)C3)cnc2nc1CC` (centres undefined), 600 s.
Under `O=C(CN1C(=O)C2CCCCN2c2ccc(C(=O)N3CCCC3)cc21)Nc1ccc2c(c1)OCO2` (centres undefined) stands 794 s.
`CCOc1ccc2ncc(C#N)c(N3CCC(C(=O)Nc4ccccc4OCC)CC3)c2c1` showed an RP-LC retention time of 984 s.
Under `COc1ccccc1N1CCN(Cc2nc3nc(C)cc(N(C)C)n3n2)CC1` stands 606 s; under `COc1ccc(Cc2nc(-c3cccc(-c4ccn[nH]4)c3)no2)cc1Cl`, 963 s; under `O=C(C1COc2ccccc2O1)N1CCc2cc(-c3csc(C4CC4)n3)ccc21` (centres undefined), 1190 s.
`O=C(Nc1ccc2c(c1)OCCO2)[C@@H]1COCC(=O)N1Cc1ccc(F)cc1` came in with an RP-LC retention time of 765 s.
Take `CCc1nc2onc(C)c2c(=O)n1CC(=O)NCCCc1ccccc1`: the RP-LC retention time turned out to be 844 s.
Consider `COCc1nnc([C@@H]2CC(F)(F)CN2Cc2ccc(OC)cc2)o1`, for which the RP-LC retention time was found to be 837 s.
With `CCn1cc(CCNC(=O)c2ccccc2OC)c2cccnc21` the figure was 716 s; with `O=C([C@@H]1C[C@H](F)CN1C(=O)Cc1ccc(F)cc1)N1CCCCC1`, 601 s.
In the case of `O=c1[nH]c2ccccc2nc1-c1cc(Cl)ccc1NS(=O)(=O)c1ccccc1`, the RP-LC retention time was 895 s.
With `CS(=O)(=O)N1CCC(OC2CCN(C(=O)Nc3ccc(F)cc3)CC2)CC1`, the RP-LC retention time came out at 729 s.
With `O=c1n(Cc2ccc(Cl)cc2)nc2ccc(S(=O)(=O)N3CCCCC3)cn12` the figure was 1000 s; with `COc1cc2ncc(-c3ccccc3)nc2cc1OC`, 1020 s; with `O=C(NCc1ccc2c(c1)OCO2)C1CC(=O)N(CCc2c[nH]c3ccc(F)cc23)C1` (centres undefined), 766 s.
On to `C=CCN1C(=O)COc2ccc(-c3csc(NC(=O)C4CCCCC4)n3)cc21`, for which the RP-LC retention time worked out at 1060 s.
As for `O=C(Nc1ccc(F)cc1)Nc1nccn(-c2ccc(Br)cc2)c1=O`, the RP-LC retention time is 985 s.
The compound `O=C(CSc1nncc2ccccc12)NCCc1ccccc1` gave an RP-LC retention time of 687 s.
In the case of `CC(C)n1nnc2cc(S(=O)(=O)N3CCCC(C(=O)N4CCN(c5ccccn5)CC4)C3)ccc21` (centres undefined), the RP-LC retention time turned out to be 644 s.
`COc1cc(CNc2nnc(-c3nnc(C4CC4)o3)c3ccccc23)cc(OC)c1` showed an RP-LC retention time of 878 s.
With `CC(NC(=O)Cc1nnc(-c2cnccn2)o1)c1ccc(F)cc1` (centres undefined) the figure was 681 s; with `CN1C(=O)c2cccnc2Sc2cc(C(=O)NCc3ccccc3)ccc21`, 746 s.
The compound `O=C(NCCCN1CCCC1)C1c2ccccc2CC(=O)N1Cc1ccccc1` (centres undefined) gave an RP-LC retention time of 604 s.
The compound `O=C(NCc1ccco1)C1CCN(S(=O)(=O)c2cc(C(=O)N3CCCC3)cs2)CC1` came in with an RP-LC retention time of 715 s.
On to `COCC(=O)N1CCCCCCNC(=O)[C@@H]2CCCC[C@@H]21`, for which the RP-LC retention time came to 659 s.
With `Cc1cc(Cl)ccc1NC(=O)C1CCCN1S(=O)(=O)c1cc2c(cc1C)NC(=O)CO2` (centres undefined), the RP-LC retention time stood at 832 s.
For the compound `O=S(=O)(c1cccc(-c2nnc(-c3ccc(F)cc3)o2)c1)N1CCCC1`, the RP-LC retention time is 991 s.
In turn, `Cc1ccccc1NC(=O)Cn1cnc2c(c1=O)CCCC2` had an RP-LC retention time of 662 s.
In turn, `CCc1ccc(NS(=O)(=O)c2cc3n(c2)CCCNC3=O)cc1` showed an RP-LC retention time of 691 s.
With `CC1=C(c2ccc(C)cc2)S(=O)(=O)N=C1N1CCCN(C(=O)c2ccccn2)CC1` the figure was 758 s; with `CCNC(=O)c1cc(N2CCCC2)nc2ccc(F)cc12`, 580 s; with `O=C(c1cccc(Br)c1)N1CCN(C(=O)N2CCOCC2)CC1`, 631 s.
Regarding `COc1ccccc1-c1nc2nccc(-c3ccc4c(c3)OCCCO4)n2n1`, the RP-LC retention time is 888 s.
`CCOc1ccc2nc(C(=O)NC3CCCCCC3)cn2n1` showed an RP-LC retention time of 982 s.
Under `O=C(CCc1cc2ccccc2[nH]c1=O)N1CCN(c2ncccn2)CC1` stands 645 s; under `COc1ccccc1NC(=O)N1CCOc2ccc(C)cc21`, 1040 s; under `O=S(=O)(c1ccc2c(c1)OCCO2)N1CCC[C@H]1c1nc(-c2ccc(F)cc2)n[nH]1`, 799 s.
`CC(=O)N1CCN(c2ccnc3c2c(=O)n(CC(=O)Nc2cc(C)on2)c(=O)n3C)CC1` registered an RP-LC retention time of 579 s.
Compound `Cc1noc(C)c1C(=O)N1CC(F)(F)C[C@H]1c1nc(C2CC2)no1` came in with an RP-LC retention time of 806 s.
As for `N#Cc1cccc(NC(=O)Cn2c(=O)cc(C(=O)N3CCCC3)c3ccccc32)c1`, the RP-LC retention time stood at 690 s.
With `CC(C)c1cc(C(=O)Nc2ccc(F)c(F)c2)no1` the figure was 1040 s; with `Cc1ccccc1-c1cc(C(=O)N2CCC(NC(=O)C3CCCC3)CC2)[nH]n1`, 712 s; with `Cc1oc2ncn(CCC(=O)N3CCN(c4ccccn4)CC3)c(=O)c2c1C`, 573 s.
Under `CCOC(=O)C1=C(CN2CCN(CC)CC2)NC(=O)NC1c1ccc(OC)cc1` (centres undefined) stands 599 s; under `CC1CCN(c2cc(-n3cnc(C(=O)Nc4ccc5c(c4)OCO5)c3)ncn2)CC1`, 1060 s; under `CCCc1sc(Nc2ccccc2OCC)nc1-c1ccc(Cl)c(Cl)c1`, 1030 s.
`COc1ccccc1CN1CN=C(Nc2nc(C)c3ccc(C)cc3n2)NC1` had an RP-LC retention time of 568 s.
With `CN1C(=O)c2cccnc2Sc2cc(NC(=O)c3ccc(Cl)s3)ccc21`, the RP-LC retention time turned out to be 870 s.
